Measurements: BindingDB's records for doi:10.1016/s0960-894x(03)00205-1 (Abbott Laboratories, 2003)

assay: Potassium channel opening activity in vitro using LtK cells transfected with Kir6.2/SUR2B exon 17

In order of falling EC50:
1. CC(C)C(=O)Nc1c(C(O)(C(F)(F)F)C(F)(F)F)ccc2ccccc12 [N-[2-(2,2,2-Trifluoro-1-hydroxy-1-trifluoromethyl-ethyl)-naphthalen-1-yl]-isobutyramide]  6630 nM
2. CC(=O)Nc1c(C(O)(C(F)(F)F)C(F)(F)F)cc(Br)c2ccccc12 [N-[4-Bromo-2-(2,2,2-trifluoro-1-hydroxy-1-trifluoromethyl-ethyl)-naphthalen-1-yl]-acetamide]  5310 nM
3. CC(=O)Nc1c(C(O)(C(F)(F)F)C(F)(F)F)ccc2cc(O)ccc12 [N-[6-Hydroxy-2-(2,2,2-trifluoro-1-hydroxy-1-trifluoromethyl-ethyl)-naphthalen-1-yl]-acetamide]  2220 nM
4. CC(C)OC(=O)Nc1c(C(O)(C(F)(F)F)C(F)(F)F)ccc2ccccc12 [[2-(2,2,2-Trifluoro-1-hydroxy-1-trifluoromethyl-ethyl)-naphthalen-1-yl]-carbamic acid isopropyl ester]  1160 nM
5. O=C(Nc1c(C(O)(C(F)(F)F)C(F)(F)F)ccc2ccccc12)c1cnc2ccccc2n1 [Quinoxaline-2-carboxylic acid [2-(2,2,2-trifluoro-1-hydroxy-1-trifluoromethyl-ethyl)-naphthalen-1-yl]-amide]  317 nM
6. CC(=O)Nc1c(C(O)(C(F)(F)F)C(F)(F)F)ccc2c(O)cccc12 [N-[5-Hydroxy-2-(2,2,2-trifluoro-1-hydroxy-1-trifluoromethyl-ethyl)-naphthalen-1-yl]-acetamide]  137 nM
7. O=C(Nc1c(C(O)(C(F)(F)F)C(F)(F)F)ccc2ccccc12)c1cccnc1 [N-[2-(2,2,2-Trifluoro-1-hydroxy-1-trifluoromethyl-ethyl)-naphthalen-1-yl]-nicotinamide]  60 nM
8. O=C(Nc1c(C(O)(C(F)(F)F)C(F)(F)F)ccc2ccccc12)c1cnco1 [Oxazole-5-carboxylic acid [2-(2,2,2-trifluoro-1-hydroxy-1-trifluoromethyl-ethyl)-naphthalen-1-yl]-amide]  24 nM
9. CCC(=O)Nc1c(C(O)(C(F)(F)F)C(F)(F)F)ccc2ccccc12 [N-[2-(2,2,2-Trifluoro-1-hydroxy-1-trifluoromethyl-ethyl)-naphthalen-1-yl]-propionamide]  15 nM
10. O=C(Nc1c(C(O)(C(F)(F)F)C(F)(F)F)ccc2ccccc12)c1cccs1 [Thiophene-2-carboxylic acid [2-(2,2,2-trifluoro-1-hydroxy-1-trifluoromethyl-ethyl)-naphthalen-1-yl]-amide]  12 nM
